Measurements taken from US9057090B2, “Method of identifying an agent for inhibiting odor of pyrazine derivatives” (Kao Corporation, priority 2012, dated 2015).

Target: T1, olfactory receptor OR5K1 (Homo sapiens, UniProt Q8NHB7)
T1 construct: expressed in transfected cells; host or cells: HEK293
T1 sequence (Q8NHB7 1-308): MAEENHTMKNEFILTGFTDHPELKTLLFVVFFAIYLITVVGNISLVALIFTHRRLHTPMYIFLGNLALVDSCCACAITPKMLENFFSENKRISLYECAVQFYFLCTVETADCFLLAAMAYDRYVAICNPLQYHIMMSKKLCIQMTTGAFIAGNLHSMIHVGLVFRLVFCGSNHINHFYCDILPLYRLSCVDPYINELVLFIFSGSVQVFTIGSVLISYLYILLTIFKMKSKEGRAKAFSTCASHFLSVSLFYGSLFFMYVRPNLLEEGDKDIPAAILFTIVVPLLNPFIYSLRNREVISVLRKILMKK
Assay: Luciferase reporter gene assay: response of olfactory receptor to pyrazine derivatives
Type: cell-based
Conditions: for response of OR5K1, dependency on concentration: 0, 3, 10, 30, 100, 300 and 1000 μM, HEK293 cells expressing OR5K1 with RTP1S variant, FIG. 2
Procedure: HEK293 cells expressing 373 types of human olfactory receptors were produced. A reaction solution having a composition shown in Table 1 was prepared and left to stand in a clean bench for 15 min and then was dispensed in each well of a 96-well plate (Becton, Dickinson and Company). Subsequently, HEK293 cells (100 μL, 3×10^5 cells/cm^2) were seeded in each well and cultured in an incubator at 37° C. and 5% CO2 for 24 hr.
An olfactory receptor expressed in HEK293 cells couples with endogenous Gas in the cells to activate adenylate cyclase and thereby increases the amount of intracellular cAMP. In this study, the response of a pyrazine derivative was measured by luciferase reporter gene assay which monitors an increase in the amount of intracellular cAMP as the luminescence value derived from a firefly luciferase gene (fluc2P-CRE-hygro). A Renilla luciferase gene was fused downstream of a CMV promoter (hRluc-CMV) and was also introduced to HEK293 cells as an internal standard to correct errors in transgenic efficiency and number of cells.
The culture medium was removed from the culture produced in the above 3), and 75 μL of a solution prepared with a CD293 medium (Invitrogen Inc.) so as to contain a pyrazine derivative (1 mM 2,6-dimethylpyrazine) was added thereto. The cells were cultured in a CO2 incubator for 2.5 hr to sufficiently express the luciferase gene in the cells. The luciferase activity was measured with a Dual-Glo™ luciferase assay system (Promega Corporation) in accordance with the operating manual of the system. The fold increases were calculated by dividing the luminescence value derived from firefly luciferase induced by stimulation with a pyrazine derivative at each concentration by the luminescence value in cells not stimulated with the pyrazine derivative and were used as an index of response strength.
Olfactory receptor OR5K1 (SEQ ID NO: 2) was expressed in HEK293 cells together with an RTP1S variant (SEQ ID NO: 4) by the same procedure as in Example 1, and the dependency of the response on the concentration (0, 3, 10, 30, 100, 300, and 1000 μM) of various pyrazine compounds was investigated. The pyrazine compounds used in this Example were pyrazine and pyrazine derivatives selected from the group consisting of 2-methylpyrazine, 2,3-dimethylpyrazine, 2,5-dimethylpyrazine, 2,3,5-trimethylpyrazine, 2,3,5,6-tetramethylpyrazine and 2-ethylpyrazine.

Structure (SMILES)	response of OR5K1, dependency on concentration	response of the 373 types of olfactory receptors to the pyrazine derivative (1 mM, HEK293 cells expressing human olfactory receptors, FIG. 1)
Cc1cnc(C)c(C)n1 [2,3,5-trimethylpyrazine]	responded in a dose-dependent manner	
Cc1nccnc1C [2,3-dimethylpyrazine]	responded in a dose-dependent manner	
Cc1cncc(C)n1 [2,6-dimethylpyrazine]	responded in a dose-dependent manner	only olfactory receptor OR5K1 responded
